Results as given in patent publication US20040049807A1, “Fatty acid desaturase gene and protein for modulating activation of defense signaling pathways in plants” (priority 2003, published 2004).

Assays:
[1] = system: PR-1, BGL2 and PR-5 gene transcripts; assay: PR gene expression after chemical treatment of plants (northern blot); assay type: in vivo, Arabidopsis
Experimental: Chemical treatment of plants. Four-week-old plants were sprayed and sub-irrigated with a solution of SA […] or BTH […] in water as previously described (Shah et al. 1997). As controls, plants were similarly treated with water. Leaves were harvested at the indicated times after treatment and quick-frozen in liquid nitrogen. Leaf samples were stored at −80° C.
RNA extraction, northern and dot blot analyses. Large-scale preparation of RNA from Arabidopsis was carried out Small-scale extraction of RNA from one or two leaves was performed in the TRIzol reagent (GIBCO-BRL, Gaithersburg, Md.) following manufacturer's instructions. Northern blot analysis and synthesis of random primed probes for PR-i, BGL2 and PR-5 were synthesized as described earlier (Shah et al. 1997).

root growth = assay: inhibition of root growth; assay type: in vivo, Arabidopsis; conditions: ssi2 plants
B. cinerea = assay: disease resistance to B. cinerea; assay type: in vivo, Arabidopsis; conditions: exogenously applied, ssi2 or ssi2 nahG plants
Experimental: FIG. 9. Analysis of disease resistance to B. cinerea. Infections with B. cinerea were carried out by wounding the leaves by needle pricks and subsequently spot inoculating spores at the wounded site. The number of pricks made per leaf were based on the leaf size and ranged from three per leaf for SSI2 (Nö) to one per leaf for the ssi2 mutant. Plants were treated with either water or 50 μM JA for 48 h prior to and throughout the infection and the inoculated leaves were photographed at 10 dpi.

[2] = in vitro S-ACP desaturase assay
SSI2 gene expression = SSI2 gene expression after treatment (northern analysis); assay type: in vivo, Arabidopsis; conditions: 12, 24 or 48 hours after treating plants
PDF1.2 = PDF1.2 gene expression (northern blot); assay type: in vivo, Arabidopsis
Experimental: FIG. 8. Expression of the SSI2 gene. (FIG. 8A) Histochemical staining of GUS activity in the leaves and inflorescence of transgenic plants expressing an SSI2::: GUS reporter gene. […] The control is a stained leaf from a wt plant. (FIG. 8B) Northern blot analysis of SSI2 (Nö), npr1-5, jar1-1 and ssi2 plants treated with water or 50 μM JA. RNA was extracted at 48 hour (h) post treatment and the blot was sequentially probed with SSI2, PDF1.2, and THI2.1. Ethidium bromide-stained rRNA served as a control for gel loading. (FIG. 8C) Northern blot analysis of plants inoculated with spores of Alternaria brassicicola. Mock (M) or fungal (A) inoculations were carried out as described previously (12). RNA was extracted at 72 h post inoculation and PDF1.2 gene expression was monitored. (FIG. 8D) Northern blot analysis of SSI2, npr1-5, jar1-1, NahG, etr1-1 and ssi2 plants treated with methanol or 50 μM MeJA. The plants were placed around a beaker containing methanol or MeJA diluted in methanol and covered with plastic wrap. RNA was prepared from leaves harvested at 48 h post treatment and analyzed for PDF1.2 gene expression.
FIG. 10. […] Oleic acid (18:1; 0.5 mM, Sigma) or water was injected into the leaves of SSI2 (Nö), ssi2 or ssi2 nahG plants followed by treatment with 50 μM JA or water. Eight to ten individual plants each of SSI2, ssi2 or ssi2 nahG were analyzed in two independent experiments. RNA was extracted at 48 h post treatment and PDF1.2 gene expression was monitored by northern blot analysis. Ethidium bromide-stained rRNA served as a control for gel loading.
RNA extraction and northern analyses. Small-scale extraction of RNA from one or two leaves was performed in the TRIzol reagent (GIBCO-BRL, Gaithersburg, Md.) following the manufacturer's instructions. Northern blot analysis and synthesis of random primed probes for PR-1, BGL2 and PR-5, PDF1.2 and THI2.1 were synthesized.

THI2.1 = THI2.1 gene expression (northern blot); assay type: in vivo, Arabidopsis; conditions: ssi2 plants
Experimental: FIG. 8. Expression of the SSI2 gene. (FIG. 8A) Histochemical staining of GUS activity in the leaves and inflorescence of transgenic plants expressing an SSI2::: GUS reporter gene. A 1631 bp fragment containing the SSI2 promoter was transcriptionally fused upstream of GUS in pBI121 and three independent transgenic lines were analyzed in both T1 and T2 generations. The control is a stained leaf from a wt plant. (FIG. 8B) Northern blot analysis of SSI2 (Nö), npr1-5, jar1-1 and ssi2 plants treated with water or 50 μM JA. RNA was extracted at 48 hour (h) post treatment and the blot was sequentially probed with SSI2, PDF1.2, and THI2.1. Ethidium bromide-stained rRNA served as a control for gel loading. (FIG. 8C) Northern blot analysis of plants inoculated with spores of Alternaria brassicicola. Mock (M) or fungal (A) inoculations were carried out as described previously (12). RNA was extracted at 72 h post inoculation and PDF1.2 gene expression was monitored. (FIG. 8D) Northern blot analysis of SSI2, npr1-5, jar1-1, NahG, etr1-1 and ssi2 plants treated with methanol or 50 μM MeJA. The plants were placed around a beaker containing methanol or MeJA diluted in methanol and covered with plastic wrap. RNA was prepared from leaves harvested at 48 h post treatment and analyzed for PDF1.2 gene expression.
RNA extraction and northern analyses. […]

In the case of `c1ccc2snnc2c1` [BTH, benzothiadiazole], the “accumulation of PR-1 transcript” value ([1]; ssi2 NPR1 nahG plants) is reported as “increased” and the PR-1 expression ([1]; ssi2 npr1-5 nahG plants) is reported as “not”.

For `CC/C=C\CC1C(=O)CCC1CC(=O)OC` (stereo not drawn) [MeJA, methyl JA], the “inhibition of root growth” value (root growth) was “unaffected” and the B. cinerea resistance (B. cinerea) was “failed to restore”.

For “mutant protein: ssi2 mutant S-ACP desaturase with leucine 146 changed to phenylalanine, bacterial-expressed (LRERARELPDDYFVVLVGDMITEEAFPTYQTMLNTLDGVRDETGASPTSWAIWTRAWTAE; (26)..(26) Phe residue instead of Leu present at position corresponding to residue 146 of wild type.; listed as Arabidopsis thaliana)”, the “fold less active than wt” value ([2]; 16:0 substrate) was about 20 fold, the “fold less active than wt” value ([2]; 18:0 substrate) was “approximately 10 fold” and the “18:16 substrate preference ratio and Δ^9 regiospecificity” value ([2]; in contrast to the wt) was “unaltered”. For the same molecule, the “activity lower than that of the wt enzyme” value ([2]; overall summary) was 10-20 fold.

With `O=C(O)c1ccccc1O` [SA, salicylic acid] the “accumulation of the PR gene transcripts” value ([1]; exogenous application, ssi2 npr1-5 plant) was “did not further increase” and the SSI2 gene expression (SSI2 gene expression) was “did not increase substantially over basal levels”.

In the case of `CCCCCCCCCCCCCCCCCC(=O)O` [18:0, stearic acid], the PR-1 gene expression ([1]; exogenous application, wt plants) is reported as “does not induce”.

With `C=C` [ethylene] the PDF1.2 expression (PDF1.2; 10 or 20 parts per million, ssi2 plants) was “not”, the PDF1.2 expression (PDF1.2; 10 or 20 parts per million, wt plants) was “induced PDF1.2 expression” and the SSI2 gene expression (SSI2 gene expression) was “did not increase substantially over basal levels”.

In the case of `CC/C=C\C[C@H]1C(=O)CC[C@@H]1CC(=O)O` [JA, jasmonic acid], the “induced activation of the THI2.1 gene” value (THI2.1) is reported as “unaffected”, the PDF1.2 expression (PDF1.2; ssi2 NPR1, ssi2 npr1-5 or jar1-1 plants, 50 μM, 48 h) is reported as “induced only low to undetectable levels” and the PDF1.2 expression (PDF1.2; wt and npr1-5 plants, 50 μM, 48 h) is reported as “activated PDF1.2 expression effectively”. The SSI2 gene expression (SSI2 gene expression) was “did not increase substantially over basal levels”, the “inhibition of root growth” value (root growth) was “unaffected” and the B. cinerea resistance (B. cinerea) was “failed to restore”.

B1: Wt SSI2: wild-type Arabidopsis SSI2 stearoyl-ACP desaturase (SEQ ID NO:3), expressed in Escherichia coli and purified (protein, listed as Arabidopsis thaliana)
chain: MALKFNPLVASQPYKFPSSTRPPTPSFRSPKFLCLASSSPALSSGPKEVESLKKPFTPPREVHVQVLHSMPPQKIEIFKSMENWAEENLLIHLKDVEKSWQPQDFLPDPASDGFEDQVRELRERARELPDDYFVVLVGDMITEEALPTYQTMLNTLDGVRDETGASPTSWAIWTRAWTAEENRHGDLLNKYLYLSGRVDMRQIEKTIQYLIGSGMDPRTENNPYLGFIYTSFQERATFISHGNTARQAKEHGDIKLAQICGTIAADEKRHETAYTKIVEKLFEIDPDGTVMAFADMMRKKISMPAHLMYDGRNDNLFDNFSSVAQRLGVYTAKDYADILEFLVGRWKIQDLTGLSGEGNKAQDYLCGLAPRIKRLDERAQARAKKGPKIPFSWIHDREVQL
With B1 the specific activity ([2]; purified enzyme expressed in Escherichia coli) was about 800 nm/min/mg.
